Reference: ChEMBL document CHEMBL3044716, “Discovery of imidacloprid and further developments from strategic molecular designs” (J Agric Food Chem, 2011)
Activity calls are given as the source filed them. The rule behind the calls is not given here.

Key:
Nephotettix cincticeps [1] = assay: Insecticidal activity against Nephotettix cincticeps (green rice leafhopper) assessed as mortality measured after 4 days; type: functional
[2] = Photolysis of the compound assessed as half life at 30 degC by 250 W sun lamp; type: physicochemical
Nephotettix cincticeps [3] = assay: Insecticidal activity against Nephotettix cincticeps (green rice leafhopper) in rice plant assessed as mortality at 100 mg/L insects released after 14 days of compound treatment measured after 24 hr of insect release; type: functional
Nephotettix cincticeps [4] = assay: Insecticidal activity against Nephotettix cincticeps (green rice leafhopper) in rice plant assessed as mortality at 100 mg/L insects released after 14 days of compound treatment measured after 72 hr of insect release (reference value: 0%); type: functional
Nephotettix cincticeps [5] = assay: Insecticidal activity against Nephotettix cincticeps (green rice leafhopper) in rice plant assessed as mortality at 100 mg/L insects released after 7 days of compound treatment measured after 48 hr of insect release; type: functional
Nephotettix cincticeps [6] = assay: Insecticidal activity against Nephotettix cincticeps (green rice leafhopper) in rice plant assessed as mortality at 100 mg/L insects released after 3 days of compound treatment measured after 24 hr of insect release; type: functional
Nephotettix cincticeps [7] = assay: Insecticidal activity against Nephotettix cincticeps (green rice leafhopper) in rice plant assessed as mortality at 100 mg/L insects released after 7 days of compound treatment measured after 24 hr of insect release; type: functional
Nephotettix cincticeps [8] = assay: Insecticidal activity against Nephotettix cincticeps (green rice leafhopper) in rice plant assessed as mortality at 100 mg/L insects released after 3 days of compound treatment measured after 48 hr of insect release; type: functional
Nephotettix cincticeps [9] = assay: Insecticidal activity against Nephotettix cincticeps (green rice leafhopper) in rice plant assessed as mortality at 100 mg/L insects released after 7 days of compound treatment measured after 72 hr of insect release (reference value: 0%); type: functional
Nephotettix cincticeps [10] = assay: Insecticidal activity against Nephotettix cincticeps (green rice leafhopper) in rice plant assessed as mortality at 100 mg/L insects released after 3 days of compound treatment measured after 72 hr of insect release (reference value: 0%); type: functional
Nephotettix cincticeps [11] = assay: Insecticidal activity against Nephotettix cincticeps (green rice leafhopper) in rice plant assessed as mortality at 100 mg/L insects released after 14 days of compound treatment measured after 48 hr of insect release; type: functional
Myzus persicae [12] = assay: Insecticidal activity against Myzus persicae (green peach aphid) in cabbage plant assessed as mortality at 100 mg/L insects released after 7 days of compound treatment measured after 72 hr of insect release (reference value: 10 +/- 3%); type: functional
Myzus persicae [13] = assay: Insecticidal activity against Myzus persicae (green peach aphid) in cabbage plant assessed as mortality at 100 mg/L insects released after 3 days of compound treatment measured after 72 hr of insect release (reference value: 14 +/- 4%); type: functional
Myzus persicae [14] = assay: Insecticidal activity against Myzus persicae (green peach aphid) in cabbage plant assessed as mortality at 100 mg/L insects released after 14 days of compound treatment measured after 72 hr of insect release (reference value: 0%); type: functional
Spodoptera litura = assay: Insecticidal activity against Spodoptera litura (tobacco cutworm) assessed as mortality measured as LC90; type: functional

Compound	LC90 (Nephotettix cincticeps [1])	further results
O=[N+]([O-])/C=C1\NCCN1Cc1ccccc1Cl	inactive	–
O=[N+]([O-])/C=C1\NCCN1Cc1cccc(Cl)c1	200 ppm	–
CN/C(=C\[N+](=O)[O-])NCc1ccccc1	inactive	–
O=[N+]([O-])/C=C1\NCCN1Cc1ccccn1	200 ppm	–
CCCN1CCN(Cc2ccc(Cl)nc2)/C1=N/[N+](=O)[O-]	0.32 ppm	–
CN1CCN/C1=C\[N+](=O)[O-]	1000 ppm	–
O=[N+]([O-])/C=C1\NCCN1Cc1cncnc1	8 ppm	–
N#CC(C#N)=C1NCCN1Cc1ccc(Cl)nc1	40 ppm	–
O=[N+]([O-])/C=C1\NCCN1C1CCCCC1	1000 ppm	–
O=[N+]([O-])/C=C1\NCCN1Cc1ccncn1	40 ppm	–
O=[N+]([O-])/C=C1\NCCCCN1Cc1ccccc1	1000 ppm	–
COc1ccc(CN2CCN/C2=C\[N+](=O)[O-])cc1	200 ppm	–
O=[N+]([O-])/C=C1\NCCN1Cc1cncs1	8 ppm	–
O=[N+]([O-])/C=C1\NCCN1Cc1ccc(C(F)(F)F)nc1	8 ppm	–
O=[N+]([O-])/C=C1\NCCCN1Cc1ccc(Cl)nc1	–	half-life [2]: 2 h
O=[N+]([O-])/C=C1\NCCCCCN1Cc1ccccc1	1000 ppm	–
O=[N+]([O-])/C=C1\NCCN1CCc1ccccc1	inactive	–
O=[N+]([O-])C=C1NCCN1 [2-(NITROMETHYLENE)IMIDAZOLIDINE]	1000 ppm	–
CSc1ccc(CN2CCN/C2=C\[N+](=O)[O-])cn1	1000 ppm	–
O=[N+]([O-])/C=C1\NCCN1Cc1cnccn1	8 ppm	–
N#Cc1ccc(CN2CCN/C2=C\[N+](=O)[O-])cn1	200 ppm	–
CCCCCN1CCN(Cc2ccc(Cl)nc2)/C1=N/[N+](=O)[O-]	20 ppm	–
O=[N+]([O-])/C=C1\NCCN1Cc1cnco1	40 ppm	–

Compound	LC90 (Nephotettix cincticeps [1])	further results
O=[N+]([O-])/C=C1\SCCN1Cc1ccc(Cl)nc1	–	half-life [2]: < 0.5 h
O=[N+]([O-])/C=C1\NCCN1Cc1ccc[nH]1	200 ppm	–
Cc1ccc(CN2CCN/C2=C\[N+](=O)[O-])cn1	1.6 ppm	–
N#Cc1cccc(CN2CCN/C2=C\[N+](=O)[O-])c1	40 ppm	–
N#C/N=C1\NCCN1Cc1ccc(Cl)nc1	0.32 ppm	half-life [2]: > 24 h
CCCCN1CCN(Cc2ccc(Cl)nc2)/C1=N/[N+](=O)[O-]	1.6 ppm	–
CS(=O)(=O)/N=C1\NCCN1Cc1ccc(Cl)nc1	40 ppm	–
O=[N+]([O-])/N=C1\NCCN1Cc1ccc(Cl)nc1 [IMIDACLOPRID]	<0.32 ppm	mortality (Nephotettix cincticeps [3]): 95%; mortality (Nephotettix cincticeps [4]): 100%; mortality (Nephotettix cincticeps [5]): 100%; mortality (Nephotettix cincticeps [6]): 47%; half-life [2]: 3 h; mortality (Nephotettix cincticeps [7]): 89%; mortality (Nephotettix cincticeps [8]): 80%; mortality (Nephotettix cincticeps [9]): 100%; mortality (Nephotettix cincticeps [10]): 100%; mortality (Nephotettix cincticeps [11]): 100%
O=[N+]([O-])/N=C1/N(CCCCCCCN2CCN(Cc3ccc(Cl)nc3)/C2=N/[N+](=O)[O-])CCN1Cc1ccc(Cl)nc1 [Heptamethylene 1,7-bis-imadacloprid]	–	mortality (Nephotettix cincticeps [3]): 100%; mortality (Nephotettix cincticeps [4]): 100%; mortality (Myzus persicae [12]): 100%; mortality (Nephotettix cincticeps [5]): 100%; mortality (Nephotettix cincticeps [6]): 13%; mortality (Nephotettix cincticeps [7]): 83%; mortality (Nephotettix cincticeps [8]): 40%; mortality (Myzus persicae [13]): 100%; mortality (Nephotettix cincticeps [9]): 100%; mortality (Nephotettix cincticeps [10]): 100%; mortality (Myzus persicae [14]): 100%; mortality (Nephotettix cincticeps [11]): 100%
O=[N+]([O-])C=C1NCCCS1	40 ppm	LC90 (Spodoptera litura): <40 ppm; half-life [2]: 0.5 h
CC(C)N1CCN(Cc2ccc(Cl)nc2)/C1=N/[N+](=O)[O-]	40 ppm	–
C=CCN1CCN(Cc2ccc(Cl)nc2)/C1=N/[N+](=O)[O-]	0.32 ppm	–
O=[N+]([O-])/C=C1\NCCN1Cc1ccncc1	8 ppm	–
CCN1CCN(Cc2ccc(Cl)nc2)/C1=N/[N+](=O)[O-]	8 ppm	–
O=[N+]([O-])/C=C1\NCCN1Cc1cnc2ccccc2c1	inactive	–
CCOC(=O)/N=C1\NCCN1Cc1ccc(Cl)nc1	40 ppm	–
O=[N+]([O-])/C=C1\NCCCN1Cc1ccccc1	>200 ppm	–
CC(=O)Nc1ccc(CN2CCN/C2=C\[N+](=O)[O-])cn1	1000 ppm	–
O=[N+]([O-])/C=C1\NCCN1Cc1ccc(Br)nc1	1.6 ppm	–
O=[N+]([O-])/C=C1\NCCN1c1ccccc1	1000 ppm	–
N#C/C=C1\NCCN1Cc1ccc(Cl)nc1	inactive	–
O=[N+]([O-])/C=C1\NCCN1Cc1ccc(F)nc1	0.32 ppm	–
COc1ccc(CN2CCN/C2=C\[N+](=O)[O-])cn1	200 ppm	–

Compound	LC90 (Nephotettix cincticeps [1])	further results
O=[N+]([O-])/C=C1\NCCN1CC1CCCO1 (centres undefined)	500 ppm	–
O=[N+]([O-])/C=C1\NCCN1Cc1cccnc1	8 ppm	–
O=[N+]([O-])N=C1N(Cc2ccc(Cl)nc2)CCN1Cc1ccc(Cl)nc1	1.6 ppm	–
O=[N+]([O-])/C=C1\NCCN1Cc1ccn[nH]1	200 ppm	–
CCOC(=O)/C=C1\NCCN1Cc1ccc(Cl)nc1	inactive	–
CN1CCN(Cc2ccc(Cl)nc2)/C1=N/[N+](=O)[O-]	1.6 ppm	–
O=[N+]([O-])/C=C1\NCCN1Cc1ccccc1	200 ppm	–
O=[N+]([O-])/C=C1\NCCN1Cc1ccc([N+](=O)[O-])cc1	200 ppm	–
CCCCCCN1CCN(Cc2ccc(Cl)nc2)/C1=N/[N+](=O)[O-]	40 ppm	–
O=[N+]([O-])/C=C1\NCCN1Cc1ccc(Cl)nc1	0.32 ppm	half-life [2]: 1 h
O=[N+]([O-])/C=C1\NCCN1Cc1ccsc1	200 ppm	–
O=[N+]([O-])/N=C1\NCCCN1Cc1ccc(Cl)nc1	–	half-life [2]: 3.5 h
N=C1NCCN1Cc1ccc(Cl)nc1 [DESNITROIMIDACLOPRID]	1000 ppm	–
O=[N+]([O-])/C=C1\NCCN1Cc1cncc(Cl)c1	40 ppm	–
O=C1NCCN1Cc1ccc(Cl)nc1	1000 ppm	–
O=[N+]([O-])/C=C1\NCCN1Cc1cccs1	200 ppm	–
O=[N+]([O-])/C=C1\NCCN1Cc1ccc(Cl)cc1	40 ppm	LC90 (Spodoptera litura): 500 ppm
O=[N+]([O-])/C=C1\NCCN1Cc1ccco1	200 ppm	–
O=[N+]([O-])/N=C1/N(CCCCCCN2CCN(Cc3ccc(Cl)nc3)/C2=N/[N+](=O)[O-])CCN1Cc1ccc(Cl)nc1 [Hexamethylene 1,6-bis-imadacloprid]	–	mortality (Nephotettix cincticeps [3]): 60%; mortality (Nephotettix cincticeps [4]): 100%; mortality (Myzus persicae [12]): 55%; mortality (Nephotettix cincticeps [5]): 94%; mortality (Nephotettix cincticeps [6]): 56%; mortality (Nephotettix cincticeps [7]): 59%; mortality (Nephotettix cincticeps [8]): 78%; mortality (Myzus persicae [13]): 83%; mortality (Nephotettix cincticeps [9]): 94%; mortality (Nephotettix cincticeps [10]): 89%; mortality (Myzus persicae [14]): 50%; mortality (Nephotettix cincticeps [11]): 100%
O=[N+]([O-])/C=C1\NCCN1Cc1cccnc1Cl	200 ppm	–
Cc1ccc(CN2CCN/C2=C\[N+](=O)[O-])cc1	200 ppm	–
